Experimental data reported in PubChem BioAssay (NCI).
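The compound was tested at five concentrations on cells cultured in 96-well plates, with a 48-hour exposure period. At the GI50, growth is halved. TGI denotes the concentration required for complete inhibition of growth.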

Experiments:
Test in all cases: DTP human tumour cell line panel, 48 h
[1] = test system: SW-620 colon
[2] = test system: NCI-H23 lung
[3] = test system: MDA-MB-435
[4] = test system: MOLT-4 leukemia
[5] = test system: TK-10 renal

Compound	TGI [1] [µM]	TGI [2] [µM]	TGI [3] [µM]	TGI [4] [µM]	TGI [5] [µM]	GI50 [5] [µM]
CC1C(OC2O[C@@H]3O[C@@]4(C)CC[C@H]5[C@H](C)CC[C@@H](C2C)[C@@]35O4)O[C@@H]2O[C@@]3(C)CC[C@H]4[C@H](C)CC[C@@H]1[C@@]24O3 (some centres undefined)	> 50	> 50	> 50	> 50	> 50	
C[N+](C)(C)CC(=O)N/N=C/c1ccncc1	> 100	> 100	> 100	> 100	> 100	
C/C(=N\Nc1nc2cccnc2s1)c1ccccn1	> 100	0.949	> 100			
CC(C)Cc1cc2c(cc1O)CCC1C2CC[C@@]2(C)C1CC[C@@H]2O (some centres undefined)	25.4	26.4	27.8	17.2	23.1	
CC1=CC(=O)CC(C)(C)C1/C=C/C(C)=C/C=C/C(C)=C/C=C/C=C(C)/C=C/C=C(C)/C=C/C1=C(C)CC(O)CC1(C)C (centres undefined)	33.2	> 100	84.8	1.6	> 100	
O=C(NCCNCCCNC(=O)c1cc(-c2ccccc2)nc2ccccc12)c1cccc(OCc2ccccc2)c1OCc1ccccc1	3.35	3.35	3.04	3.51	3.17	
CC1CCC2(CC1)NC1=C(CC(C)CC1)C1=C2CC(C)CC1 (centres undefined)	37.7	59		53	89.2	
O=C(CNC(c1ccccc1)(c1ccccc1)c1ccccc1)NC1CCCCC1NC(=O)CNC(c1ccccc1)(c1ccccc1)c1ccccc1 (centres undefined)	> 100	> 100	> 100	> 100	> 100	
COC1OC(COC(=O)c2cc(O)c(O)c(O)c2)C(OC(=O)c2cc(O)c(O)c(O)c2)C(OC(=O)c2cc(O)c(O)c(O)c2)C1OC(=O)c1cc(O)c(O)c(O)c1 (centres undefined)	> 100	> 100	25.7	70.6	> 100	
Fc1ccc(-c2sc(-c3cccs3)cc2Cc2cccs2)cc1	> 100	> 100	> 100	> 100	> 100	
FC(F)(Sc1ncc[nH]1)c1nc2ccccc2o1	> 100	> 100	> 100	> 100	> 100	
C[C@@H](NC(=O)c1ccc(CNC(=O)/C=C/c2cccc(Oc3ccccc3)c2)cc1)c1ccccc1	> 100	> 100	> 100	> 100	> 89.2	
COc1ccc(C(=O)/C=C/c2ccc(OCCSCCCCCCCCCCSCCOc3ccc(/C=C/C(=O)c4ccc(OC)c(OC)c4)cc3)cc2)cc1OC	> 100	> 100	> 100	> 100	> 100	
O=C(O)c1ccc(C2SCc3nc4ccccc4n32)cc1 (centres undefined)	> 100	> 100		> 100	> 100	
Cc1ccc2nc(C=Nc3ccc(Cl)cc3)cc(C)c2c1	27.2	38	24.1	> 53.6	57	
CN1CN(c2ccccc2)C2(CCN(CCC3COc4ccccc4O3)CC2)C1=O (centres undefined)	> 100	> 100	89.4	70.1	48.2	
c1ccc2c(c1)CCc1[nH]c3c(c1-2)-c1ccccc1CC3	> 100	> 100	> 100	> 100	> 100	
OCCOc1ccccc2cccc1-2	> 100	> 100	> 100		> 100	
CCOP(=O)(OCC)/C(C#N)=C/c1cnc[nH]1	> 100	> 100	> 100	> 100	> 100	
O=c1c2cc(Cl)cc(Cl)c2oc2nc3n(c(=O)c12)CCCS3	> 100	> 100	> 100	> 100	> 100	
COP(=O)(OC)C(O)CC(C)C (centres undefined)	> 100		> 100	> 100	> 100	
CC(C)(C)c1cc2c(O)c(c1)Cc1cc(C(C)(C)C)cc(c1O)Cc1cc(C(C)(C)C)cc(c1O)Cc1cc(C(C)(C)C)cc(c1O)Cc1cc(C(C)(C)C)cc(c1O)Cc1cc(C(C)(C)C)cc(c1O)Cc1cc(C(C)(C)C)cc(c1O)Cc1cc(C(C)(C)C)cc(c1O)C2	> 50	> 50	> 50	> 50	> 50	

Compound	TGI [1] [µM]	TGI [2] [µM]	TGI [3] [µM]	TGI [4] [µM]	TGI [5] [µM]	GI50 [5] [µM]
CSc1ncc2c(n1)sc1c(=O)n(-c3ccccc3)cnc12	> 100	> 100	> 100	> 100	> 100	
COC(=O)C1=C(C(=O)OC)SC2(S1)C(C(=O)OC)=C(C(=O)OC)Sc1c2ssc1=Nc1ccc(Cl)cc1		4.13	2.14	5.04	2.69	
O=c1[nH]c(=O)n(C2OC(CO)C(O)C2O)cc1Oc1ccccc1 (centres undefined)	> 100	> 100	> 100	> 100	> 100	
O=C(CCCl)NNC1=NCCCN1	> 100	> 100	> 100	> 100	> 100	
COc1ccc2nc3ccc(OC)cc3c(SCc3ccccc3)c2c1	> 100	> 100	> 100	> 83.2	> 100	
COc1ccc(C2CC3(c4ccccc4)ON=C(c4ccccc4)N3c3ccccc3S2)cc1 (centres undefined)	> 100	> 100	> 100		> 100	
COC(=O)/C=C/C1(O)C=CC(=O)C=C1		17.5	> 39.2	> 24.6	16.4	
C=C(CN1CC2C[C@](C(=O)OC)(c3cc4ccccc4[nH]3)C1C(OC)C2OC)S(=O)(=O)c1ccccc1 (some centres undefined)	22.8	9.31	7.21	2.83	17.4	
CC(C)(CCCCC(C)(C)[N+](C)(C)C)[N+](C)(C)C	> 100		> 100	> 100	> 100	
COc1cc2c(cc1OCCCCOc1cc3c(cc1OC)C(=O)N1CCC[C@H]1C(=O)N3)N=C[C@@H]1CCCN1C2=O	14.6	25.4	14.4	4.69	27.4	
COC(=O)CCC(C)C1CCC2C3C(C[C@H](OC(C)=O)[C@]12C)[C@@]1(C)CCC2(C[C@H]1C[C@H]3OC(C)=O)OOC1(CC[C@]3(C)C4C[C@H](OC(C)=O)[C@]5(C)C(C(C)CCC(=O)OC)CCC5C4[C@H](OC(C)=O)C[C@@H]3C1)OO2 (some centres undefined)	> 100	> 100	> 100	> 100	> 100	
COc1ccccc1/C=C1\NC(=S)N(/C=C2\C(=O)Oc3ccccc3C2=O)C1=O	> 100	> 100	> 100	72.6	> 100	
O=C(OCc1ccccc1)N(CCCCN(CCCNCc1ccccc1)C(=O)OCc1ccccc1)CCCNCc1ccccc1	0.39	3.4	0.335		3.43	
O=C1CC(=O)NC(=NNS(=O)(=O)c2ccccc2)N1	> 100	> 100	> 100	> 100	> 100	
Cc1nnc(N)nc1/C=C/c1c(O)ccc2ccccc12	> 100	> 100	79.5	> 100	> 100	
COc1ccc(C2C3CCc4ccccc4C3=NN2S(=O)(=O)c2ccc(/C=C/C(=O)O)cc2)cc1 (centres undefined)	> 100	1.87	2.69	25.3	> 100	
CC(=O)Nc1nnc(S(C)(=O)=O)s1	> 100	> 100	> 100	> 100	> 100	
COC(=O)C1=C(C)C=C(N2CCOCC2)C(C(=O)OC)C1c1ccccc1 (centres undefined)	> 10	> 10	> 10	> 10	> 10	
CSc1ccc(/C=C2\N=C(c3ccccc3)N(c3nc4cc(C)c(C)cc4s3)C2=O)cc1	> 100		37.7	> 100	> 100	
COc1cccc(N(CN2C(=O)CCC2C(=O)O)C(C)=O)c1 (centres undefined)	> 100	> 100	> 100	> 100	> 100	
O=C1C=CC(=O)c2c1ccc1c3ccccc3n(Cc3cccc([N+](=O)[O-])c3)c21	32.4	50.4	> 65.2	37.7	44.8	
c1ccc2c(c1)NC1(N3CCCCC3)CCCCC21 (centres undefined)	> 100	> 100	> 100	85.1	> 100	

Compound	TGI [1] [µM]	TGI [2] [µM]	TGI [3] [µM]	TGI [4] [µM]	TGI [5] [µM]	GI50 [5] [µM]
O=C(C/C(=N/O)c1cc(-c2ccccc2)no1)c1ccccc1		43.3	> 100	> 100	> 100	
O=C1C=C(OCCCCl)C(=O)c2c(O)ccc(O)c21	2.3	0.479	0.364	6.06	3.46	
CCOC1Oc2ccccc2-c2nc(SC)ncc21 (centres undefined)	> 100	> 100	> 100	> 100	> 100	
COc1ccc2cc(-c3nc(N)nc(N4N=C(C)CC4(C)C)n3)c(=N)oc2c1		31.8	42.1	33.7	72	
Nc1nc2c(ncn2Cc2ccccc2CO)c(=O)[nH]1	> 100	> 100	> 100	> 100	> 100	
Cc1cccc(-c2cc(=O)c3c(C)cc(C)nc3[nH]2)c1	> 19.7	40.4		> 100	> 100	
Cc1ccc(S(=O)c2sccc2C=O)cc1 (centres undefined)	55.9	> 100	62.6	59.1	> 100	
O=C(CSc1nc2ccc(I)cc2c(=O)n1Cc1ccccc1)NNC(=O)c1ccccc1	> 100	68.8	> 100	23.5	27.4	
Cn1c(=O)sc2cc(C(=S)N3CCC(Cc4ccccc4)CC3)ccc21	> 100	> 100	> 100	> 100	> 100	
COC(=O)C1(C(=O)OC)N=C(C)OC1/C=C/c1ccccc1 (centres undefined)	> 100	> 100	> 100	> 100	> 100	
CN(c1cn(C2CC[C@@H](CO)O2)c(=O)[nH]c1=O)C1CCCCC1 (some centres undefined)	> 100	> 100	> 100	> 100	> 100	
COC(=O)[C@H](Cc1ccc(OC(C)(C)C)cc1)N[C@H](C)C(=O)N[C@@H](Cc1ccccc1)C(=O)OCc1ccccc1	> 100	> 100	> 100	50	> 100	
Cc1cc(S(=O)(=O)/N=C(/[N-]S(=O)(=O)c2ccc(Cl)cc2)[n+]2ccc(N(C)C)cc2)c(SCC(=O)O)cc1Cl	> 100	> 100	> 100	> 100	> 100	
CC(OC(=O)C(CC(=O)OC(C)(C)C)NC(=O)OC(C)(C)C)C(=O)OCc1ccccc1 (centres undefined)	> 100	> 100	> 100	> 100	> 100	
CN1CCC2(CC1)C(=NC1CCCCC1)NC(=S)N2c1ccccc1	> 100	> 100	> 100	> 100	> 100	
O=C(O)CCCc1ccc2ccccc2c1	> 100	> 100	> 100	> 100	> 100	
O=C(O)CC(Sc1ccccc1)c1ccccc1 (centres undefined)	> 100	> 100	> 100	> 100	> 100	
CCOC(=O)C(=O)/C(=C/N1C(=O)CC(=O)NC1=S)C(=O)OCC	> 100	> 100	> 100	> 100	> 100	> 100
O=C1CSC(c2c[nH]c3ccccc23)N1c1ccccc1[N+](=O)[O-] (centres undefined)	> 100	> 100	> 100	> 100	> 100	
CCOC(=O)C(C(=S)SC)c1nn2c(=O)cc(C)nc2s1 (centres undefined)	37.2	39	32.4	44.2	61.9	
O=c1cn[nH]c(=S)n1/N=C/c1c[nH]c2ccccc12	> 100		> 100	> 100		
